D56/D0 data for 1 compound are collected here from patent US20030152536A1, “Cosmetic preparations containing waltheria indica extracts” (priority 2000, published 2003).

The structures appear in SMILES notation.

The test has as its system melanin index of forearm skin. Briefly: In vivo lightening of color on the forearm of 41 volunteers with Asiatic skin color (melanin index D56/D0). Details: species or system human. The settings on record: D0 melanin index before, D56 after treatment. The protocol: The effectiveness of the preparations according to the invention by comparison with known preparations was tested in vitro by inhibition of the synthesis of melanin in B 16 melanocytes. The concentration of the active principles (in % by weight) in the cell culture medium and the inhibition in %-rel. in relation to the blank value are shown. An in vivo test was also carried out by measuring the lightening of color on the extensor muscle side of the forearm of 41 volunteers with Asiatic skin color. The depigmenting activity D56/D0 is shown, D0 standing for the melanin index before the treatment and D56 for the index after the treatment.

With `OC[C@H]1O[C@@H](Oc2ccc(O)cc2)[C@H](O)[C@@H](O)[C@@H]1O` [Arbutin], the D56/D0 (concentration 0.1) was found to be 54 and the D56/D0 (concentration 0.3) stood at 30.
